From PubChem BioAssay (NCI)
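The compound was tested at five concentrations on cells cultured in 96-well plates, with a 48-hour exposure period. GI50: concentration for 50% inhibition of growth. TGI denotes the concentration required for complete inhibition of growth.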

Legend:
Experiment in all cases: DTP human tumour cell line panel, 48 h
786-0 renal = system: 786-0 renal
SNB-19 CNS = system: SNB-19 CNS
A549 NSCLC = system: A549 NSCLC
NCI-H460 lung = system: NCI-H460 lung
RPMI-8226 leukemia = system: RPMI-8226 leukemia
LOX IMVI melanoma = system: LOX IMVI melanoma
HCT-15 colon = system: HCT-15 colon
SF-295 CNS = system: SF-295 CNS
HL-60(TB) leukemia = system: HL-60(TB) leukemia
COLO 205 colon = system: COLO 205 colon

O=C(Nc1ccccc1C(=O)N/N=C(\c1ccccc1)c1ccccn1)c1ccc(F)cc1
GI50 (786-0 renal): 0.281 µM
TGI (786-0 renal): 8.44 µM
GI50 (SNB-19 CNS): 0.502 µM
TGI (SNB-19 CNS): > 100 µM
GI50 (A549 NSCLC): 0.451 µM
TGI (A549 NSCLC): > 100 µM
GI50 (NCI-H460 lung): 0.105 µM
TGI (NCI-H460 lung): 4.19 µM
GI50 (RPMI-8226 leukemia): 0.51 µM
TGI (RPMI-8226 leukemia): > 100 µM
GI50 (LOX IMVI melanoma): 0.247 µM
TGI (LOX IMVI melanoma): > 100 µM
GI50 (HCT-15 colon): 0.0426 µM
TGI (HCT-15 colon): > 100 µM
GI50 (SF-295 CNS): 0.262 µM
TGI (SF-295 CNS): > 100 µM
GI50 (HL-60(TB) leukemia): 0.297 µM
TGI (HL-60(TB) leukemia): 2.01 µM
GI50 (COLO 205 colon): 0.215 µM
TGI (COLO 205 colon): > 100 µM

O=C1CN(/N=C/c2ccc(-c3ccc(F)cc3)o2)C(=O)N1
TGI (786-0 renal): > 100 µM
TGI (SNB-19 CNS): > 100 µM
TGI (A549 NSCLC): > 100 µM
TGI (NCI-H460 lung): > 100 µM
TGI (RPMI-8226 leukemia): > 100 µM
TGI (LOX IMVI melanoma): > 100 µM
TGI (HCT-15 colon): > 100 µM
TGI (SF-295 CNS): > 100 µM
TGI (HL-60(TB) leukemia): > 100 µM
TGI (COLO 205 colon): > 100 µM

C[C@@H]1C[C@]2(C[C@@H](C)C3[C@@H](CC4(C)[C@@H]5CCC6C(C)(C)OC(=O)C=C[C@]67C[C@@]5(CC[C@]34C)OO7)O2)OC1=O (stereo not given in full)
TGI (786-0 renal): > 100 µM
TGI (SNB-19 CNS): > 100 µM
TGI (A549 NSCLC): > 100 µM
TGI (NCI-H460 lung): > 100 µM
TGI (RPMI-8226 leukemia): > 100 µM
TGI (LOX IMVI melanoma): > 100 µM
TGI (HCT-15 colon): > 100 µM
TGI (SF-295 CNS): > 100 µM
TGI (HL-60(TB) leukemia): > 100 µM
TGI (COLO 205 colon): > 100 µM

COc1ccc(C(O)CC(O)(C(F)(F)F)C(F)(F)F)cc1 (stereo not given)
TGI (786-0 renal): > 100 µM
TGI (SNB-19 CNS): > 100 µM
TGI (A549 NSCLC): > 100 µM
TGI (NCI-H460 lung): 60.6 µM
TGI (RPMI-8226 leukemia): 57.2 µM
TGI (LOX IMVI melanoma): 36 µM
TGI (HCT-15 colon): > 100 µM
TGI (SF-295 CNS): 75.7 µM
TGI (HL-60(TB) leukemia): 37 µM
TGI (COLO 205 colon): 33.8 µM

CCOP(=O)(Nc1ccc2oc(=O)c3ccccc3c2c1)OCC
TGI (786-0 renal): > 100 µM
TGI (SNB-19 CNS): > 100 µM
TGI (A549 NSCLC): > 100 µM
TGI (NCI-H460 lung): > 100 µM
TGI (RPMI-8226 leukemia): 98.2 µM
TGI (LOX IMVI melanoma): > 100 µM
TGI (HCT-15 colon): > 100 µM
TGI (SF-295 CNS): > 100 µM
TGI (HL-60(TB) leukemia): 55.8 µM
TGI (COLO 205 colon): > 100 µM

CSc1ccc(C(=O)C(=O)c2ccc(SC)s2)s1
TGI (786-0 renal): > 10 µM
TGI (SNB-19 CNS): > 10 µM
TGI (A549 NSCLC): > 10 µM
TGI (NCI-H460 lung): > 10 µM
TGI (RPMI-8226 leukemia): > 10 µM
TGI (LOX IMVI melanoma): > 10 µM
TGI (HCT-15 colon): > 10 µM
TGI (SF-295 CNS): > 10 µM
TGI (HL-60(TB) leukemia): > 10 µM
TGI (COLO 205 colon): > 10 µM

CCCCCCCCCCCCCc1nn[nH]n1
TGI (786-0 renal): 31.5 µM
TGI (SNB-19 CNS): 33 µM
TGI (A549 NSCLC): 40.7 µM
TGI (NCI-H460 lung): 40.6 µM
TGI (RPMI-8226 leukemia): 64.2 µM
TGI (LOX IMVI melanoma): 35.4 µM
TGI (HCT-15 colon): 34.6 µM
TGI (SF-295 CNS): 34.6 µM
TGI (HL-60(TB) leukemia): 39.9 µM
TGI (COLO 205 colon): 36.6 µM

COc1cccc(C2NC(=S)NC(C)=C2C(=O)Nc2ccc(Cl)c(Cl)c2)c1 (stereo not given)
GI50 (786-0 renal): 10.7 µM
TGI (786-0 renal): 24 µM
GI50 (SNB-19 CNS): 15.6 µM
TGI (SNB-19 CNS): > 50 µM
GI50 (A549 NSCLC): 17.9 µM
TGI (A549 NSCLC): > 50 µM
GI50 (NCI-H460 lung): 8.21 µM
TGI (NCI-H460 lung): 16.3 µM
GI50 (RPMI-8226 leukemia): 21 µM
TGI (RPMI-8226 leukemia): > 50 µM
GI50 (LOX IMVI melanoma): 7.93 µM
TGI (LOX IMVI melanoma): 15.1 µM
GI50 (HCT-15 colon): 8.57 µM
TGI (HCT-15 colon): 22.6 µM
GI50 (SF-295 CNS): 9.72 µM
TGI (SF-295 CNS): 21.6 µM
GI50 (HL-60(TB) leukemia): > 50 µM
TGI (HL-60(TB) leukemia): > 50 µM
GI50 (COLO 205 colon): 9.41 µM
TGI (COLO 205 colon): 30.5 µM

O=c1[nH]c2ccccc2n1-c1n[nH]c2ccccc12
GI50 (786-0 renal): 46.6 µM
TGI (786-0 renal): > 100 µM
GI50 (SNB-19 CNS): 56.6 µM
TGI (SNB-19 CNS): > 100 µM
GI50 (A549 NSCLC): 30.8 µM
TGI (A549 NSCLC): > 100 µM
GI50 (NCI-H460 lung): 19.4 µM
TGI (NCI-H460 lung): 93.5 µM
GI50 (RPMI-8226 leukemia): 17.6 µM
TGI (RPMI-8226 leukemia): 64.6 µM
GI50 (LOX IMVI melanoma): 17.4 µM
TGI (LOX IMVI melanoma): 52.5 µM
GI50 (HCT-15 colon): 31 µM
TGI (HCT-15 colon): > 100 µM
GI50 (SF-295 CNS): 25.4 µM
TGI (SF-295 CNS): 59.8 µM
GI50 (HL-60(TB) leukemia): 12.1 µM
TGI (HL-60(TB) leukemia): 43.2 µM
GI50 (COLO 205 colon): 28.7 µM
TGI (COLO 205 colon): > 100 µM

CC/C=C\C/C=C\C[C@H](O)C/C=C1/C(=O)C=C[C@@H]1C/C=C\CCCC(=O)OC
GI50 (786-0 renal): 1.82 µM
TGI (786-0 renal): 3.52 µM
GI50 (SNB-19 CNS): 3.05 µM
TGI (SNB-19 CNS): 13.7 µM
GI50 (A549 NSCLC): 2.4 µM
TGI (A549 NSCLC): 5.62 µM
GI50 (NCI-H460 lung): 3.2 µM
TGI (NCI-H460 lung): 10.7 µM
GI50 (RPMI-8226 leukemia): 0.572 µM
TGI (RPMI-8226 leukemia): 7.32 µM
GI50 (LOX IMVI melanoma): 0.21 µM
TGI (LOX IMVI melanoma): 0.493 µM
GI50 (HCT-15 colon): 0.494 µM
TGI (HCT-15 colon): 2.38 µM
GI50 (SF-295 CNS): 2.3 µM
TGI (SF-295 CNS): 5.56 µM
GI50 (HL-60(TB) leukemia): 1.71 µM
TGI (HL-60(TB) leukemia): 6.06 µM
GI50 (COLO 205 colon): 1.77 µM
TGI (COLO 205 colon): 3.78 µM

COC(=O)CC(C(C(C)=O)C(=O)OCc1ccccc1)N1C(=O)OCC1c1ccccc1 (stereo not given)
TGI (786-0 renal): > 100 µM
TGI (SNB-19 CNS): > 100 µM
TGI (A549 NSCLC): > 100 µM
TGI (NCI-H460 lung): > 100 µM
TGI (RPMI-8226 leukemia): > 100 µM
TGI (LOX IMVI melanoma): > 100 µM
TGI (HCT-15 colon): > 100 µM
TGI (SF-295 CNS): > 100 µM
TGI (HL-60(TB) leukemia): > 100 µM
TGI (COLO 205 colon): > 100 µM

COc1ccccc1NC(=O)C(CC(C(=O)Nc1ccccc1OC)/C(C)=N/Nc1ccc([N+](=O)[O-])cc1[N+](=O)[O-])/C(C)=N/Nc1ccc([N+](=O)[O-])cc1[N+](=O)[O-] (stereo not given)
TGI (786-0 renal): > 100 µM
TGI (SNB-19 CNS): > 100 µM
TGI (A549 NSCLC): > 100 µM
TGI (NCI-H460 lung): > 100 µM
TGI (RPMI-8226 leukemia): > 100 µM
TGI (LOX IMVI melanoma): > 100 µM
TGI (HCT-15 colon): > 100 µM
TGI (SF-295 CNS): > 100 µM
TGI (HL-60(TB) leukemia): > 100 µM
TGI (COLO 205 colon): > 100 µM

CC1COCC(C)N1C1=C(Cl)C(=O)c2ccccc2C1=O (stereo not given)
GI50 (786-0 renal): 3.67 µM
TGI (786-0 renal): 13.5 µM
GI50 (SNB-19 CNS): 14.9 µM
TGI (SNB-19 CNS): 28.1 µM
GI50 (A549 NSCLC): 17 µM
TGI (A549 NSCLC): 32.2 µM
GI50 (NCI-H460 lung): 15.8 µM
TGI (NCI-H460 lung): 33.6 µM
GI50 (RPMI-8226 leukemia): 2.04 µM
TGI (RPMI-8226 leukemia): 5.68 µM
GI50 (LOX IMVI melanoma): 1.41 µM
TGI (LOX IMVI melanoma): 2.77 µM
GI50 (HCT-15 colon): 6.5 µM
TGI (HCT-15 colon): 23.4 µM
GI50 (SF-295 CNS): 2.94 µM
TGI (SF-295 CNS): 17.7 µM
GI50 (HL-60(TB) leukemia): 2.02 µM
TGI (HL-60(TB) leukemia): 5.03 µM
GI50 (COLO 205 colon): 13.3 µM
TGI (COLO 205 colon): 27 µM

COc1ccc(OC)c2c3c(ccc12)C(c1ccccc1)OC3=O (stereo not given)
TGI (786-0 renal): > 100 µM
TGI (SNB-19 CNS): > 100 µM
TGI (A549 NSCLC): > 100 µM
TGI (NCI-H460 lung): > 100 µM
TGI (RPMI-8226 leukemia): > 100 µM
TGI (LOX IMVI melanoma): > 100 µM
TGI (HCT-15 colon): > 100 µM
TGI (SF-295 CNS): > 100 µM
TGI (HL-60(TB) leukemia): > 100 µM
TGI (COLO 205 colon): > 100 µM

CCCCCCCCCCCCCCCCOC(=O)c1cc(O)cc(C(=O)OCCCCCCCCCCCCCCCC)c1
TGI (786-0 renal): > 100 µM
TGI (SNB-19 CNS): > 100 µM
TGI (A549 NSCLC): > 100 µM
TGI (NCI-H460 lung): > 100 µM
TGI (RPMI-8226 leukemia): > 100 µM
TGI (LOX IMVI melanoma): > 100 µM
TGI (HCT-15 colon): > 100 µM
TGI (SF-295 CNS): > 100 µM
TGI (HL-60(TB) leukemia): > 100 µM
TGI (COLO 205 colon): > 100 µM

COc1cnc2cc(C(=O)O)c3ccccc3c2c1
TGI (786-0 renal): > 100 µM
TGI (SNB-19 CNS): > 100 µM
TGI (A549 NSCLC): > 100 µM
TGI (NCI-H460 lung): > 100 µM
TGI (RPMI-8226 leukemia): > 100 µM
TGI (LOX IMVI melanoma): > 100 µM
TGI (HCT-15 colon): > 100 µM
TGI (SF-295 CNS): > 100 µM
TGI (HL-60(TB) leukemia): > 100 µM
TGI (COLO 205 colon): > 100 µM

COc1cc(/C=C(\C#N)C(N)=C(C#N)C#N)cc(O)c1O
TGI (786-0 renal): > 100 µM
TGI (SNB-19 CNS): > 100 µM
TGI (A549 NSCLC): > 100 µM
TGI (NCI-H460 lung): > 100 µM
TGI (RPMI-8226 leukemia): > 100 µM
TGI (LOX IMVI melanoma): > 100 µM
TGI (HCT-15 colon): > 100 µM
TGI (SF-295 CNS): > 100 µM
TGI (HL-60(TB) leukemia): > 81.5 µM
TGI (COLO 205 colon): > 100 µM
